# According to patent US12528741B2, “Compositions for controlling microbially induced concrete corrosion” (The Regents of the University of Colorado, priority 2020, dated 2026):
# How the values were obtained:
# [1] = system: Acidithiobacillus spp. enrichments from sewer crown biofilm extract; assay: metal inhibition in liquid media (pH monitoring and cell counts of sewer enrichments); assay type: cell-based; details: for cell density where pH dropped: average, aliquots when pH reached 2
# Protocol: FIGS. 4A-4E are graphs showing pH of enrichments including different levels of copper, cobalt, and silver, alone and in combinations. FIG. 4A: Cu^2+, FIG. 4B: Ag+, FIG. 4C: Cu/Ag in combination at a ratio 2:1, FIG. 4D: Co^2+, and FIG. 4E: Cu/Co in combination at a ratio 1:1. Enrichments were inoculated with 150 μL of biofilm extract from a corroded site and dominated by Acidithiobacillus spp. (>95% relative abundance).
# FIGS. 5A-5E are graphs showing cell densities (cells/mL) observed in sewer sourced enrichment cultures including copper, cobalt and silver, alone and in combinations. FIG. 5A: Cu^2+, FIG. 5B: Ag^+, FIG. 5C: Cu^2+/Ag^+ in combination at a ratio 2:1, FIG. 5D: Co^2+, and FIG. 5E: Cu^2+/Co^2+ in combination at a ratio 1:1. Light grey bars indicate enrichment cultures where pH dropped below 2. Dark grey bars indicate batches where pH approached neutrality. (n=3).
# The pH was monitored and used as an indicator for significant acidophilic SOB activity (FIGS. 4A-4E). Thiobacillus media, without any metal addition, was used as control for comparative analysis. […] Above 40 mg Cu/L, no pH depression was observed; in contrast, pH increased and plateaued at values ranging between 6.5 and 6.7. […] Where only cobalt and silver were used, all challenges indicated some evidence of acidophilic activity.
# Combinations of metals were also studied, including Cu/Ag and Cu/Co at mass ratios of 2:1 and 1:1, respectively. […] Thresholds for pH were also observed above 10 mg Cu/L and 10 mg Co/L, where copper and cobalt were combined. This challenge was monitored over 30 days, indicating significant acidophilic activity after […] of incubation.
# All metal species used for the challenges were based on nitrate salts. Therefore, inhibition in the presence of counter ions, was also monitored. Challenges with increasing NO3 concentrations (up to 200 mg NO3/L) where prepared with NaNO3. All challenges indicated acidophilic activity and no lag effect was ever observed.
# Aliquots for cell quantification and genetic analyses were extracted from each experiment when pH reached 2. If no pH drop was observed, aliquots were extracted after 30 days of incubation. FIGS. 5A-5E illustrate the observed cell densities for all tests.
# The inhibitory effects and minimum inhibitory concentration of Cu and Co were further assessed on mixed acidophilic cultures in a liquid format. Silver (Ag) was also included based on its literature history as broad-spectrum inhibitory metal. As for the solid inhibition assays, the results presented in this study support the hypothesis that different metal may ions have markedly different inhibitory potential against Acidithiobacillus spp. extracted from sewer crowns. […] In thiosulfate-based media, stationary phase for Acidithiobacillus cultures was reached 8 days after inoculation. The relative duration of experiments highlighted metal-induced lag phases from stable inhibitory concentrations. MICs clearly emerged for Cu alone (50 mg Cu/L), and in mixtures of Cu/Ag (50 mg/L and 25 mg/L) and Cu/Co (15 mg/L and 15 mg/L). […] No inhibitory synergism was observed when mixing Cu and Ag at a 2:1 ratio, when compared to any individual metal alone. However, synergistic inhibition was observed when Cu and Co were present at a 1:1 ratio. […] The literature is tenuous on this topic.
# [2] = system: sulfur oxidizing bacteria isolated from a corroding sewer (Acidithiobacillus spp.); assay: modified Kirby-Bauer diffusion susceptibility test, metal-laden PAC on thiosulfate agar (solid media); assay type: cell-based, Acidithiobacillus thiooxidans; details: average
# Source text: Bacterial cell abundance on the different areas of the plate surfaces were quantified using the epifluorescence microscopy methods known in the art. Areas selected for representative analysis were located in the center of each inhibition zone and the dispersed colonies area, and 10 mm into the bacterial monolayer.
# Acidithiobacillus spp. response to metal mixtures is limited, however, the synergy of binary and ternary metal solutions have been described. […] The classic Kirby-Bauer antibiotic sensitivity test was adopted to assess diffusion inhibition of Acidithiobacillus thiooxidans growing on agar surfaces, in a longitudinal format.
# Acidithiobacillus spp. = assay: 16S rRNA gene analysis of metal-exposed enrichment cultures; assay type: cell-based; details: below 40 mg Cu/L
# Source text: Cu and Cu/Ag mixtures were chosen to investigate the microbial communities under conditions where a pH threshold was observed. 16S rRNA gene analysis of 17 samples generated over 4 million sequences, classified in 611 operational taxonomic units (OTUs). After rarefaction analysis, the median Good's coverage was >99.9%, indicating enough sequencing data to confidently describe the diversity within these samples. Abundant OTUs consistently included 5 bacteria genera (FIGS. 6A-6B). Samples with metal concentration below the acidophilic inhibition threshold (40 mg Cu/L) indicated bacterial communities were dominated by Acidithiobacillus spp. […] When copper and silver were both present, Acidithiobacillus represented the dominant genus below the concentrations of 40 mg Cu/L and 20 mg Ag/L. The same genus represented less than 1% in batches above these concentrations. Following the same pattern as in the presence of Cu alone, the enrichments were also dominated by Burkholderia and Ralstonia spp. with significant presence of Sphingomonas spp., Leifsonia spp., Methylobacterium spp., and Microbacteriaceae spp. (when Cu ≥40 mg/L).
structure (smiles),measurement,setting,value
"[Ag] [Ag, silver]","MIC, Ag","[1]; 30 days, Ag alone (highest tested) or in Cu/Ag",> 75 µg/mL
same,threshold Ag concentration for pH depression,[1]; Ag alone (highest tested) or Cu/Ag 2:1,≥ 75 mg Ag/L
same,cell density where pH dropped,[1],1.73×10^8 cells/mL
"[Cd] [Cd, cadmium]",metal normalized inhibition length (Cd),[2],0.74 cm·(mg Cd/L)^−1
"[Co+2] [Co, cobalt]",metal normalized inhibition length (Co),[2]; Co alone or co-loaded with Cu on PAC,1.23 cm·(mg Co/L)^−1
same,"MIC, Co","[1]; 30 days, Co alone or in Cu/Co",> 50 µg/mL
same,threshold Co concentration for pH depression,[1]; Co alone (highest tested) or Cu/Co 1:1,≥ 50 mg Co/L
same,cell density where pH dropped,[1],3.81×10^8 cells/mL
"[Cu+2] [Cu, copper]",metal normalized inhibition length (Cu),"[2]; agar, 10 days, pH below 3, Cu alone or co-loaded with Co on PAC",2.36 cm·(mg Cu/L)^−1
same,"MIC, Cu","[1]; 30 days, Cu alone or in Cu/Ag 2:1, Cu/Co 1:1",50 µg/mL
same,cell density where pH did not drop,[1]; aliquots after 30 days,1.11×10^9 cells/mL
same,cell density where pH dropped,[1],1.06×10^8 cells/mL
same,minimum inhibitory concentration (MIC) for acidophilic growth,"[1]; no significant pH drop after 30 days, Cu alone",50 mg Cu/L
same,endpoint pH of challenges at or below threshold,[1]; up to 40 mg Cu/L,< 2 pH
same,Acidithiobacillus relative abundance below threshold,Acidithiobacillus spp.,> 99%
"O=[N+]([O-])[O-].[Na+] [NaNO3, reference compound]","highest NO3 concentration still showing acidophilic activity, no lag",[1]; counter ion challenge,≥ 200 mg NO3/L
"[Ni] [Ni, nickel]",metal normalized inhibition length (Ni),[2],0.28 cm·(mg Ni/L)^−1
"[Zn] [Zn, zinc]",metal normalized inhibition length (Zn),[2],0.14 cm·(mg Zn/L)^−1
